Where a name gives a salt, the structure may show the parent alone.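 Five compound concentrations were applied to cells in 96-well plates for 48 hours; endpoints were derived by simple linear interpolation of the resulting dose-response curve. At the GI50, growth is halved.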 The source made the active and inactive calls. Rule as the data show it: active = GI50 up to about 1.1 µM and inactive = higher. Starred links: 1 amine or outer side, 2 acyl side, 3 side chain; linkers in the order of their positions; H or OH if unused. Non-standard residues stand in square brackets, D forms with d. Residues, ends and D or L forms follow the SMILES beside them. ξ: configuration not given here. Ile(3ξ) = CCC(C)[C@H](N)C(=O)O; X35 = C=CCC(O[*:1])C(=O)[*:2]; NMeV = CN[C@H](C(=O)O)C(C)C; NMeA = CN[C@@H](C)C(=O)O; βAla = NCCC(=O)O
What was measured:
Test in all cases: NCI-60 cell line screen, 48 h
CCRF-CEM = tested on: CCRF-CEM
K562 = tested on: K562
KM12 = tested on: KM12
Malme-3M = tested on: Malme-3M
NCI-H460 = tested on: NCI-H460
SF-295 = tested on: SF-295
SK-MEL-5 = tested on: SK-MEL-5
SN12C = tested on: SN12C
SR = tested on: SR
SW-620 = tested on: SW-620
TK-10 = tested on: TK-10
UACC-257 = tested on: UACC-257
HCC 2998 = tested on: HCC 2998
HOP-92 = tested on: HOP-92
IGROV-1 = tested on: IGROV-1
OVCAR-5 = tested on: OVCAR-5

Measured: GI50

CC(C)NC1CCCCC2c3ccccc3C12O (stereo not given)
inactive: CCRF-CEM > 100 µM | K562 > 100 µM | KM12 > 100 µM | Malme-3M > 100 µM | NCI-H460 > 100 µM | SF-295 > 100 µM | SK-MEL-5 > 100 µM | SN12C > 100 µM | SR > 100 µM | SW-620 > 100 µM | TK-10 > 100 µM | UACC-257 > 100 µM

Nc1nc(Cl)c2ncn(CCCC(c3ccccc3)P(=O)(O)O)c2n1 (stereo not given)
inactive: CCRF-CEM > 100 µM | HCC 2998 > 100 µM | HOP-92 > 100 µM | IGROV-1 > 100 µM | K562 > 100 µM | KM12 > 100 µM | Malme-3M > 100 µM | NCI-H460 > 100 µM | OVCAR-5 > 100 µM | SF-295 > 100 µM | SK-MEL-5 > 100 µM | SN12C > 100 µM | SR > 100 µM | SW-620 > 100 µM | TK-10 > 100 µM | UACC-257 > 100 µM

C=CCC1OC(=O)CCNC(=O)[C@H](C)N(C)C(=O)[C@H](C(C)C)N(C)C(=O)[C@H](C(C)CC)NC(=O)[C@@H]2CCCN2C1=O (stereo not given in full) (cyclo([Ile(3ξ)][NMeV][NMeA][βAla][X35]P))
inactive: CCRF-CEM 3.62 µM | HCC 2998 5.31 µM | HOP-92 8.93 µM | IGROV-1 33.6 µM | K562 5 µM | KM12 8.43 µM | Malme-3M 3.28 µM | NCI-H460 4.94 µM | OVCAR-5 13.6 µM | SF-295 4.41 µM | SK-MEL-5 2.97 µM | SN12C 11.5 µM | SR 4.95 µM | SW-620 5.07 µM | TK-10 > 38.3 µM | UACC-257 4.71 µM

CCCCCCCCCCCc1c(O)c(=O)c2c(oc3c(=O)c(CCCCCCCCCCC)c(O)c(=O)c3n2-c2ccc(N(C)C)cc2)c1=O
inactive: CCRF-CEM 26 µM | IGROV-1 24.3 µM | K562 52.8 µM | KM12 12.9 µM | Malme-3M 22.4 µM | NCI-H460 18.6 µM | OVCAR-5 23.8 µM | SF-295 21.8 µM | SK-MEL-5 18.7 µM | SN12C 19.2 µM | SR 65.2 µM | SW-620 24 µM | TK-10 15.6 µM | UACC-257 20 µM

CCN(CC)c1ccc(/N=C2\C=C(Cl)C(=O)c3ncccc32)c(C)c1
inactive: CCRF-CEM 1.68 µM | HOP-92 2.15 µM | IGROV-1 11.1 µM | K562 2.28 µM | Malme-3M 2.88 µM | NCI-H460 6.56 µM | SF-295 15.6 µM | SK-MEL-5 3.18 µM | SN12C 7.41 µM | SW-620 4.05 µM | TK-10 4.37 µM | UACC-257 2.48 µM

O=C(CCCCCCCCC(=O)OCCCn1cc(C(=O)NC(=O)OCc2ccccc2)c(=O)[nH]c1=O)OCCCn1cc(C(=O)NC(=O)OCc2ccccc2)c(=O)[nH]c1=O
inactive: CCRF-CEM > 100 µM | HCC 2998 > 100 µM | HOP-92 > 100 µM | IGROV-1 > 100 µM | K562 > 100 µM | KM12 > 100 µM | Malme-3M > 100 µM | NCI-H460 > 100 µM | OVCAR-5 > 100 µM | SF-295 > 100 µM | SK-MEL-5 > 100 µM | SN12C > 100 µM | SW-620 > 100 µM | TK-10 > 100 µM | UACC-257 > 100 µM

NCc1cc(O)c(O)c(O)c1
inactive: CCRF-CEM 38.5 µM | HOP-92 > 100 µM | IGROV-1 > 100 µM | K562 43.1 µM | KM12 > 100 µM | Malme-3M > 100 µM | NCI-H460 > 100 µM | OVCAR-5 > 100 µM | SF-295 > 100 µM | SK-MEL-5 > 100 µM | SN12C > 100 µM | SR 91.2 µM | SW-620 > 100 µM | TK-10 > 100 µM | UACC-257 > 100 µM

CCCCC[C@@H]1CCCC2NC(CCCCCO[Si](c3ccccc3)(c3ccccc3)C(C)(C)C)CCC21 (stereo not given in full)
inactive: CCRF-CEM 7.82 µM | HCC 2998 11.2 µM | HOP-92 10.1 µM | IGROV-1 16.9 µM | K562 5.25 µM | KM12 12.5 µM | Malme-3M 19.1 µM | NCI-H460 16.2 µM | OVCAR-5 20.1 µM | SF-295 16.9 µM | SK-MEL-5 18.4 µM | SN12C 14.7 µM | SW-620 14.6 µM | TK-10 18.7 µM | UACC-257 15.2 µM

CC1=NCCc2c1[nH]c1cc(O)ccc21 [HARMALOL HYDROCHLORIDE]
inactive: CCRF-CEM > 100 µM | HCC 2998 > 100 µM | HOP-92 > 100 µM | IGROV-1 > 100 µM | K562 > 100 µM | KM12 > 100 µM | Malme-3M > 100 µM | NCI-H460 > 100 µM | OVCAR-5 > 100 µM | SF-295 > 100 µM | SK-MEL-5 > 100 µM | SN12C > 100 µM | SW-620 > 100 µM | TK-10 > 100 µM | UACC-257 > 100 µM

From ChEMBL document CHEMBL1201862, “PubChem BioAssay data set” (2004)
